Columns and labels:
[1] = tested on: colon carcinoma cells; conditions: cited from earlier work
[2] = tested on: conditional APC mutant mice; conditions: mouse, in vivo; cited from earlier work
[3] = tested on: Xenopus embryos; conditions: in vivo; cited from earlier work
[4] = tested on: DLD-1-cancer cells; conditions: colorectal adenocarcinoma derived; cited from earlier work
[5] = tested on: β-catenin; conditions: cited from earlier work
[6] = tested on: CD34+ stem/progenitor cells from newly diagnosed CML patients; assay: Expression in FACS-sorted CD34+ CML stem/progenitor cells cultured ex vivo; conditions: imatinib 1 μM, 7 days
[7] = in vivo; conditions: NSG, mouse, plasma, oral, 50 mg/kg
[8] = tested on: human CD34+ CML stem/progenitor cells; assay: Expression in human CML cells ex vivo from xenografted NSG mice; conditions: imatinib 50 mg/kg daily, 2 weeks
Source text: (g-l) CD70 (g), SP1 (h), DNMT1 mRNA (i), and miR-29 expression (j-l) (qRT-PCR) in CD34^+ cells. (n-m) Correlation of CD70 expression with the expression of selected Wnt target genes RUNX1 (m) and WISP1 (n) in CD34^+ stem/progenitor cells from newly diagnosed chronic phase CML patients. Expression data are derived from a public repository for microarray data and are available under accession number E-MEXP-480 (EMBL EBI Arrayexpress). […] Statistics: (c-e), one-way ANOVA; (f-l), Student's t test; (m) and (n), Spearman correlation.
(p-r) CD70 and CD27 expression were determined on primary human CML cells. […] After 2 weeks of treatment, mice were euthanized and CML cells were analyzed for the expression of CD70 and CD27 by FACS. […] (p-q) red lines, CD70 and CD27 antibodies; blue lines, respective isotype controls.

[9] = tested on: human CD34+ CML stem/progenitor cells; assay: Murine xenograft CML model: human CML cells in BM of NSG mice; assay type: in vivo
[10] = tested on: SD-1 cells; assay: Chou-Talalay drug combination study, growth inhibition of SD-1 cells (cell numbers after 72 h)
[11] = tested on: CD34+ stem/progenitor cells from healthy donors; assay: Growth and colony formation of CD34+ stem/progenitor cells from BM of healthy donors; assay type: cell-based, human; conditions: anti-CD70 mAb 10 μg/ml, imatinib 1 μM, alone or combined; 7 or 14 days
[12] = tested on: human CD34+ CML stem/progenitor cells; assay: Liquid culture of primary human CD34+ CML stem/progenitor cells: cell numbers, BrdU, viability; assay type: cell-based; conditions: 7 days; anti-CD70 mAb 10 μg/ml, imatinib 1 μM, alone or combined
[13] = tested on: KBM5r cells; assay: miR-29 expression and anti-miR silencing in KBM5r cells (qRT-PCR); assay type: cell-based, human; conditions: imatinib 1 μM, nilotinib 1 μM, ponatinib 0.1 μM; 72 h
Experimental: MicroRNA concentrations were measured using TaqMan miRNA Assays for miR-29a, miR-29b, miR-29c, or RNU48 (Applied Biosystems), and qRT-PCR results were normalized to RNU48 expression.
48 h after transfection, cells were harvested and subjected to total RNA extraction and cDNA synthesis for qRT-PCR.

[14] = tested on: imatinib-resistant KBM5r cells (BCR-ABL1 T315I); assay: CD70, SP1, DNMT1 expression and viability in imatinib-resistant KBM5r cells; assay type: cell-based, human
Experimental: Specifically, 5×10^4 KBM5r cells were transduced overnight at 37° C. and 5% CO2 with 2×10^5 infectious units of shSP1 or the respective control lentiviral particles having scrambled RNA (Santa Cruz Biotechnology Inc.) in the presence of 5 μg/ml polybrene (Sigma-Aldrich) according to the manufacturer's instructions. After 18 hours, medium was removed, and cells were cultured in medium supplemented with 1 μg/ml puromycin to select for stable expression of shSP1 or scrambled RNA.
KBM5r cells (1×10^5) stably transduced with shSP1 (shSP1), or the respective control scrambled RNA lentiviral particles (scr), were then cultured for 72 hours in the presence of vehicle or ponatinib (po; 0.1 μM). Treated cells were tested for MFI of CD70 protein expression (FACS) (FIG. 1, q), CD70 (FIG. 1, r) and SP1 (Figure, 1 s) mRNA expression (qRT-PCR).
In a first experiment, 1×10^5 KBM5r cells were cultured in the presence of vehicle, ponatinib (po, 0.1 μM), lithium chloride (li, […]), or both in combination (po/li) for 24 h (FIG. 2, A-C). In a second experiment, 1×10^5 KBM5r cells were cultured in the presence of vehicle, ponatinib (po, 0.1 μM), R-Spondin 1 (R, 10 ng/ml), or both in combination (po/R) for 72 h (FIG. 2, D-E).

[15] = tested on: CD70 promoter in KBM5r cells; assay: DNA methylation analysis of the CD70 promoter by bisulfite sequencing; assay type: cell-based, human; conditions: ponatinib 0.1 μM or azacytidine 1 μM, vs vehicle
Experimental: The methylation profile of the SP1 transcription factor binding sites within the KBM5r cell CD70 promoter was analyzed by bisulfite sequencing after treatment of KBM5r cells with either a control, ponatinib (0.1 μM) or azacytidine (1 μM).
Bisulfite conversion of the isolated DNA samples from both KBM5 and KBM5r cells were assessed using the Epitect® Bisulfite Kit (Qiagen) according to the manufacturer's protocol. The promoter region covering binding sites for important transcription factors were selectively amplified using the following primers: forward primer (−227˜−205): 5′-[…]-3′ (SEQ ID NO.: 9); reverse primer (+14˜+35): 5′-[…]-3′(SEQ ID NO.: 10). For the amplification of bisulfite-treated genomic DNA (gDNA), the following PCR conditions were used: 1×: 95° C. for 10 min; 40×: 95° C. for 30 s, 58° C. for 40 s, 72° C. for 1 min; 1×72° C. for 5 min. The PCR cocktail was: 3 μl of DNA (of at least 10 ng/μL DNA for a final concentration of […]) in a 25 μl total volume using 0.5 pmol of each primer, 200 μM dNTPs, 0.2 U Hot Start Taq DNA polymerase, 1.5 mM MgCl2 and the buffer supplied with the enzyme. The amplified promoter region were gel-purified and subjected for fluorescent Sanger sequencing. The relative quantification of the methylated allele (C) versus unmethylated allele (T) was assessed by the QSVAnalyser software. […]

[16] = tested on: xenograft models of breast, lung, pancreatic, and colon cancer; conditions: in vivo; cited from earlier work
[17] = tested on: pancreatic tumor-initiating cells; conditions: cited from earlier work
[18] = 72 h, imatinib 1 μM, ponatinib 0.1 μM

COc1ccc(C2(CNC(=O)c3ccc(NC(=O)c4ccco4)cc3)CCOCC2)cc1 [JW55, N-(4-(((4-(4-methoxyphenyl)tetrahydro-2H-pyran-4-yl)methyl)carbamoyl)phenyl)furan-2-carboxamide]
canonical WNT signaling ([1]; cells with mutations in APC locus or an allele of β-catenin): inhibited canonical WNT signaling
AXIN2 and β-catenin levels [1]: stabilization of AXIN2, a member of the β-catenin destruction complex, followed by increased degradation of β-catenin
tamoxifen-induced polyposis formation [2]: reduced
XWNT8-induced axis duplication [3]: reduced XWNT8-induced axis duplication

O=c1nc(-c2ccc(C(F)(F)F)cc2)[nH]c2c1CSCC2 [XAV939]
growth of DLD-1 cancer cells [4]: inhibits growth
WNT-stimulated accumulation of β-catenin [5]: blocks WNT-stimulated accumulation of β-catenin

Cc1ccc(NC(=O)c2ccc(CN3CCN(C)CC3)cc2)cc1Nc1nccc(-c2cccnc2)n1 [imatinib]
CD70 protein expression [6]: increased CD70 protein expression
Dnmt 1 mRNA expression [6]: down-regulated
Dnmt3a mRNA expression [6]: down-regulated
SP1 mRNA expression [6]: increased
concentration at 2 weeks [7]: ~1000 nM
CD27 expression [8]: remained unchanged
CD70 expression on CD34+ CML stem/progenitor cells [8]: specifically increased CD70 expression on CD34+ CML stem/progenitor cells
DNMT1 and miR-29a, miR-29b, miR-29c expression in CD34+ CML stem/progenitor cells [8]: decreased the expression of DNMT1 and miR-29a, miR-29b, and miR-29c
SP1 expression in CD34+ CML stem/progenitor cells [8]: up-regulation of SP1
frequencies and absolute numbers of CD45+CD33+ leukemia cells and CD34+ CML stem/progenitor cells in BM ([9]; cells of patients 3, 4 and 5, 2 weeks of treatment): reduced cell frequencies and absolute numbers
eradication of CD34+ CML stem/progenitor cells in BM (NSG mice eradicated of treated) ([9]; patient 4 cells, 2 weeks of treatment): neither imatinib nor anti-CD70 mAb treatment alone eliminated all the CD34+ CML cells
CD45+CD33+ CML myeloid cell frequencies and absolute numbers in BM ([9]; patient 4 cells, imatinib 50 mg/kg daily p.o., anti-CD70 mAb 10 mg/kg i.p. every 3rd day, 2 weeks): significantly reduced
Fa (fraction affected), imatinib ([10]; imatinib 0.02 μM): 0.001
Fa (fraction affected), imatinib ([10]; imatinib 0.04 μM): 0.040
Fa (fraction affected), imatinib ([10]; imatinib 0.08 μM): 0.149
Fa (fraction affected), imatinib ([10]; imatinib 0.16 μM): 0.201
Fa (fraction affected), imatinib ([10]; imatinib 0.32 μM): 0.243
Fa (fraction affected), imatinib ([10]; imatinib 0.64 μM): 0.351
Fa (fraction affected), imatinib ([10]; imatinib 1.28 μM): 0.432
Fa (fraction affected), imatinib ([10]; imatinib 2.55 μM): 0.527
Fa (fraction affected), imatinib ([10]; imatinib 5.10 μM): 0.689
Fa (fraction affected), imatinib ([10]; imatinib 10.20 μM): 0.791
growth and colony formation of healthy donor CD34+ cells [11]: only marginally affected
cell proliferation (BrdU) [12]: reduced cell proliferation
cell viability / cell death [12]: induced cell death
growth (cell numbers) [12]: inhibited growth and proliferation
miR-29a, miR-29b, miR-29c expression [13]: did not affect miR-29s

[Cl-].[Li+] [lithium chloride]
TKI-mediated changes in CD70, SP1, DNMT1 mRNA expression ([14]; lithium chloride 10 μM with ponatinib 0.1 μM, 24 h): restored TKI-mediated changes in gene expression

Cc1cn(-c2cc(NC(=O)c3ccc(C)c(Nc4nccc(-c5cccnc5)n4)c3)cc(C(F)(F)F)c2)cn1 [nilotinib]
miR-29a, miR-29b, miR-29c expression [13]: did not affect miR-29s

Cc1ccc(C(=O)Nc2ccc(CN3CCN(C)CC3)c(C(F)(F)F)c2)cc1C#Cc1cnc2cccnn12 [ponatinib]
CD70 promoter DNA methylation [15]: significantly reduced CD70 promoter DNA methylation
CD70 mRNA expression [14, 18]: induced
Dnmt 1 mRNA expression [14, 18]: down-regulated Dnmt1 mRNA
SP1 mRNA expression [14, 18]: up-regulated SP1
CD70 protein expression (FACS) ([14]; 72 h, therapeutic concentration (imatinib 1 μM, ponatinib 0.1 μM)): induced CD70 protein expression
CD70 protein expression (MFI) early after treatment ([14]; ponatinib 0.1 μM, 16 h): already up-regulated after 16 hours
cell death (Annexin-V/7-AAD FACS) ([14]; ponatinib 0.1 μM, 16 h): did not induce substantial cell death
CD70 expression in SP1 knockdown (shSP1) KBM5r cells ([14]; ponatinib 0.1 μM, 72 h, vs scrambled control RNA cells): did not up-regulate CD70
miR-29a, miR-29b, miR-29c expression [13]: down-regulation of all three miR-29s

B1: OMP-18R5: monoclonal antibody that targets the Frizzled receptors to block association with WNT ligands (antibody, chains of the INN, looked up, V domains shown)
VH: EVQLVESGGGLVQPGGSLRLSCAASGFTFSHYTLSWVRQAPGKGLEWVSVISGDGSYTYYADSVKGRFTISSDNSKNTLYLQMNSLRAEDTAVYYCARNFIKYVFANWGQGTLVTVSS
VL: DIELTQPPSVSVAPGQTARISCSGDNIGSFYVHWYQQKPGQAPVLVIYDKSNRPSGIPERFSGSNSGNTATLTISGTQAEDEADYYCQSYANTLSLVFGGGTKLTVL
interaction with standard-of-care treatment [16]: synergized with standard-of-care treatment
tumor growth [16]: significant inhibition of tumor growth
capabilities of pancreatic tumor-initiating cells [17]: potently block the capabilities of pancreatic tumor-initiating cells

B2: R-Spondin 1: specific Wnt activator (protein, UniProt Q2MKA7 21-263, looked up)
R-spondin-1: SRGIKGKRQRRISAEGSQACAKGCELCSEVNGCLKCSPKLFILLERNDIRQVGVCLPSCPPGYFDARNPDMNKCIKCKIEHCEACFSHNFCTKCKEGLYLHKGRCYPACPEGSSAANGTMECSSPAQCEMSEWSPWGPCSKKQQLCGFRRGSEERTRRVLHAPVGDHAACSDTKETRRCTVRRVPCPEGQKRRKGGQGRRENANRNLARKESKEAGAGSRRRKGQQQQQQQGTVGPLTSAGPA
TKI-mediated changes in CD70, SP1, DNMT1 mRNA expression ([14]; R-Spondin 1 10 ng/ml with ponatinib 0.1 μM, 72 h): restored TKI-mediated changes in gene expression
